This data set is described as follows: Henry solubility constant Hcp at 310 K (mol/(m3 Pa)). The settings on record: reference: Guitart et al. (1989).
In the case of `CC(Cl)(Cl)Cl` [1,1,1-trichloroethane], the “Henry solubility constant Hcp at 310 K” value came out at 0.00032.

Take `FC(F)(F)C(Cl)Br` (configuration not stated) [1-bromo-1-chloro-2,2,2-trifluoroethane]: the “Henry solubility constant Hcp at 310 K” value was 0.00028. Turning to `CC(C)CC(C)(C)C` [2,2,4-trimethylpentane], the “Henry solubility constant Hcp at 310 K” value worked out at 4.6e-06. As for `FC(F)OC(F)(F)C(F)Cl` (configuration not stated) [2-chloro-1,1,2-trifluoroethyl difluoromethyl ether], the “Henry solubility constant Hcp at 310 K” value came to 0.00027. With `c1ccccc1` [benzene] the figure was 0.002; with `CCCC` [butane], 8e-06. In the case of `C1CCCCC1` [cyclohexane] it was 3.4e-05; in that of `C1CC1` [cyclopropane], 7.8e-05. With `ClCCl` [dichloromethane] the figure was 0.0034.

In the case of `CCOCC` [diethyl ether], the “Henry solubility constant Hcp at 310 K” value stood at 0.0063.

For the compound `CC(C)OC(C)C` [diisopropyl ether], the “Henry solubility constant Hcp at 310 K” value is 0.0028. In the case of `CCOC(C)=O` [ethyl ethanoate] it was 0.043.

Take `CCCCCCC` [heptane]: the “Henry solubility constant Hcp at 310 K” value stood at 6e-06.

On to `CCCCCC` [hexane], for which the “Henry solubility constant Hcp at 310 K” value came out at 6.7e-06.

Turning to `CC(C)=O` [propanone], the “Henry solubility constant Hcp at 310 K” value amounted to 0.12. In the case of `FS(F)(F)(F)(F)F` [sulfur hexafluoride] it was 1.4e-06; in that of `ClC=C(Cl)Cl` [trichloroethene], 0.00055.

The record behind these values is Sander's compilation of Henry's law constants (doi:10.1016/s0378-4347(00)82845-5).
